Assay results published in patent publication US9499493B2, “2,4-pyrimidinediamine compounds and their uses” (Rigel Pharmaceuticals, Inc., priority 2002, dated 2016).

Legend:
[1] = test system: cultured human mast cells (CHMC); assay: CHMC low cell density IgE activation: tryptase assay; format: cell-based; settings: anti-IgE
Outline: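 Cells pelleted, taken up in warm MT, plated at 1000-1500/well, held 1 hr 37° C. Anti-IgE added, 30 min 37° C. Plates spun; supernatant mixed with tryptase substrate, 30 min RT.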

[2] = test system: cultured human mast cells (CHMC); assay: CHMC low cell density ionomycin activation: tryptase assay; format: cell-based

Structure (SMILES)	IC50 [1]	IC50 [2]
CCOC(=O)c1cnc(Nc2cccc3cn[nH]c23)nc1Nc1cccc2cn[nH]c12 [R926321, N2,N4-Bis(3-indazol-7-yl)-5-ethoxycarbonyl-2,4-pyrimidinediamine]	> 10 µM	> 10 µM
CC(C)Oc1ccc(Nc2nc(Nc3ccc(OCc4nc(-c5ccccc5)no4)cc3)ncc2F)cc1 [R935135, 5-Fluoro-N4-(4-isopropoxyphenyl)-N2-[4-(3-phenyl-1,2,4-oxadiazol-5-yl)methyleneoxyphenyl]-2,4-pyrimidinediamine]	10 µM	> 10 µM
Cc1noc(COc2ccc(Nc3ncc(F)c(Nc4ccc5c(c4)OCCO5)n3)cc2)n1 [R935143, N4-(3,4-Ethylenedioxyphenyl)-5-fluoro-N2-[4-(3-methyl-1,2,4-oxadiazol-5-yl)methyleneoxyphenyl]-2,4-pyrimidinediamine]	0.573 µM	> 10 µM
CCOC(=O)COc1ccc(Nc2nc(Cl)cc(NCC(=O)OC)n2)cc1 [R926555, 6-Chloro-N2-(4-ethoxycarbonylmethyleneoxyphenyl)-N4-(methoxycarbonylmethyl)-2,4-pyrimidinediamine]	> 10 µM	> 10 µM
CCOC(=O)c1cnc(Nc2ccc(OCC(=O)OC)cc2)nc1Nc1ccc(OCC(=O)OC(C)(C)C)cc1 [R926579, N4-(4-tert-Butoxycarbonylmethyleneoxyphenyl)-5-ethoxycarbonyl-N2-(4-methoxycarbonylmethyleneoxyphenyl)-2,4-pyrimidinediamine]	> 10 µM	> 10 µM
Fc1ccc(Nc2ccnc(Nc3ccc(F)c(Cl)c3)n2)cc1Cl [R935163, N2,N4-Bis(3-chloro-4-fluoropheny)-2,4-pyrimidinediamine]	> 10 µM	> 10 µM

Next, values leading:

IC50 [1]	IC50 [2]	Structure (SMILES)
2.23 µM	> 10 µM	CCOC(=O)COc1cccc(Nc2ncc(C(=O)OCC)c(Nc3ccc4c(c3)OCCO4)n2)c1 [R926797, N4-(3,4-Ethylenedioxyphenyl)-N2-(3-ethoxycarbonylmethyleneoxyphenyl)-5-ethoxycarbonyl-2,4-pyrimidinediamine]
0.208 µM	> 10 µM	CNC(=O)COc1cccc(Nc2ncc(F)c(Nc3cccc(C(C)C)c3)n2)c1 [R940288, 5-Fluoro-N4-(3-isopropylphenyl)-N2-[3-(N-methylamino)carbonylmethyleneoxyphenyl]-2,4-pyrimidinediamine]
0.346 µM	> 10 µM	CNC(=O)COc1cccc(Nc2ncc(F)c(Nc3ccc(F)c(C)c3)n2)c1 [R926923, 5-Fluoro-N4-(4-fluoro-3-methylphenyl)-N2-[3-[(N-methylamino)carbonylmethyleneoxy]phenyl]-2,4-pyrimidinediamine]
2 µM	8.01 µM	CCOC(=O)COc1cccc(Nc2ncc(F)c(Nc3ccc4c(c3)C(OC)CCO4)n2)c1 (stereo not shown) [R950294, N4-(4-Methoxy-3,4-dihydro-2H-1-benzopyran-6-yl)-5-fluoro-N2-[3-ethoxycarbonylmethyleneoxyphenyl]-2,4-pyrimidinediamine]
0.348 µM	> 10 µM	COC(=O)COc1cc(O)cc(Nc2ncc(F)c(Nc3cccc(O)c3)n2)c1 [R926927, 5-Fluoro-N2-[3-hydroxy-5-(methoxycarbonylmethyleneoxy)phenyl]-N4-(3-hydroxyphenyl)-2,4-pyrimidinediamine]
1.06 µM	> 10 µM	Cc1nc(COc2cccc(Nc3nc(Nc4ccc(OCC(N)=O)cc4)ncc3F)c2)no1 [R945133, N2-[4-(Aminocarbonylmethoxy)phenyl]-5-fluoro-N4-[3-(5-methyl-1,2,4-oxadiazol-3-yl)methyleneoxyphenyl]-2,4-pyrimidinediamine]
2.99 µM	> 10 µM	OB(O)c1cccc(Nc2ncc(F)c(Nc3ccc4c(c3)OCCO4)n2)c1 [R926837, N2-(3-Boronylphenyl)-N4-(3,4-ethylenedioxyphenyl)-5-fluoro-2,4-pyrimidinediamine]
1.55 µM	> 10 µM	NC(=O)COc1ccc(Nc2nc(Nc3cccc(O)c3)ncc2F)cc1 [R945063, N4-[4-(Aminocarbonylmethyleneoxy)phenyl]-5-fluoro-N2-(3-hydroxyphenyl)-2,4-pyrimidinediamine]
